Measurements reported in ChEMBL document CHEMBL1136554, “p38 Inhibitors: piperidine- and 4-aminopiperidine-substituted naphthyridinones, quinolinones, and dihydroquinazolinones” (Bioorg Med Chem Lett, 2003).

system: not listed separately; assay: Plasma clearance measured in rat; assay type: ADME, organism-based; conditions: read-out: Clp

| SMILES | clearance [mL/min/kg] |
| --- | --- |
| CC(C)N1CCC(c2cc(-c3ccc(F)cc3Cl)c3c(c2)N(c2c(Cl)cccc2Cl)C(=O)CC3)CC1 | 70 |
| CN1C2CCC1CC(Nc1cc3c(ccc(=O)n3-c3c(Cl)cccc3Cl)c(-c3ccccc3Cl)n1)C2 (configuration not stated) | 38 |
| CC1(C)CC(Nc2cc3c(ccc(=O)n3-c3c(Cl)cccc3Cl)c(-c3ccccc3Cl)n2)CC(C)(C)N1 | 9.4 |
| CC(C)N1CCC(c2cc(-c3ccccc3Cl)c3ccc(=O)n(-c4c(Cl)cccc4Cl)c3c2)CC1 | 39 |
| CC(C)N1CCC(c2cc3c(ccc(=O)n3-c3c(Cl)cccc3Cl)c(-c3ccccc3Cl)n2)CC1 | 51 |

target: T1, MAP kinase p38 (Homo sapiens, UniProt O15264+Q15759+Q16539+P53778); assay: Inhibition of p38 kinase related TNF-alpha release; assay type: functional; conditions: not given

| SMILES | IC50 [nM] |
| --- | --- |
| CC(C)N1CCC(Nc2cc(-c3ccccc3Cl)c3c(c2)N(c2c(Cl)cccc2Cl)C(=O)NC3)CC1 | 31 |
| CN1C2CCC1CC(Nc1cc(-c3ccccc3Cl)c3c(c1)N(c1c(Cl)cccc1Cl)C(=O)NC3)C2 (configuration not stated) | 20 |
| CC(C)N1CCC(c2cc(-c3ccc(F)cc3Cl)c3c(c2)N(c2c(Cl)cccc2Cl)C(=O)CC3)CC1 | 24 |
| CC(C)N1CCC(Nc2cc3c(ccc(=O)n3-c3c(Cl)cccc3Cl)c(-c3ccccc3Cl)n2)CC1 | 51 |
| CN1C2CCC1CC(Nc1cc3c(ccc(=O)n3-c3c(Cl)cccc3Cl)c(-c3ccccc3Cl)n1)C2 (configuration not stated) | 24 |
| CC1(C)CC(Nc2cc3c(ccc(=O)n3-c3c(Cl)cccc3Cl)c(-c3ccccc3Cl)n2)CC(C)(C)N1 | 10 |
| CC(C)N1CCC(c2cc(-c3ccccc3Cl)c3ccc(=O)n(-c4c(Cl)cccc4Cl)c3c2)CC1 | 5.5 |
| CC(C)N1CCC(c2cc3c(ccc(=O)n3-c3c(Cl)cccc3Cl)c(-c3ccccc3Cl)n2)CC1 | 4.9 |
| CC1(C)CC(Nc2cc(-c3ccccc3Cl)c3c(c2)N(c2c(Cl)cccc2Cl)C(=O)NC3)CC(C)(C)N1 | 200 |
| O=c1ccc2c(-c3ccccc3Cl)nc(NC3CCNCC3)cc2n1-c1c(Cl)cccc1Cl | 18 |
| CN1C(C)(C)CC(Nc2cc3c(ccc(=O)n3-c3c(Cl)cccc3Cl)c(-c3ccccc3Cl)n2)CC1(C)C | 13 |

system: not listed separately; assay: Oral bioavailability in rat; assay type: ADME, organism-based; conditions: in vivo

| SMILES | bioavailability [%] |
| --- | --- |
| CC(C)N1CCC(c2cc(-c3ccc(F)cc3Cl)c3c(c2)N(c2c(Cl)cccc2Cl)C(=O)CC3)CC1 | 10 |
| CN1C2CCC1CC(Nc1cc3c(ccc(=O)n3-c3c(Cl)cccc3Cl)c(-c3ccccc3Cl)n1)C2 (configuration not stated) | 8.5 |
| CC1(C)CC(Nc2cc3c(ccc(=O)n3-c3c(Cl)cccc3Cl)c(-c3ccccc3Cl)n2)CC(C)(C)N1 | 5.9 |
| CC(C)N1CCC(c2cc(-c3ccccc3Cl)c3ccc(=O)n(-c4c(Cl)cccc4Cl)c3c2)CC1 | 17 |
| CC(C)N1CCC(c2cc3c(ccc(=O)n3-c3c(Cl)cccc3Cl)c(-c3ccccc3Cl)n2)CC1 | 32 |

target: T1, MAP kinase p38; assay: Inhibition of p38 MAP kinase; assay type: protein assay; conditions: not given

| SMILES | IC50 [nM] |
| --- | --- |
| CC(C)N1CCC(Nc2cc(-c3ccccc3Cl)c3c(c2)N(c2c(Cl)cccc2Cl)C(=O)NC3)CC1 | 1.6 |
| CN1C2CCC1CC(Nc1cc(-c3ccccc3Cl)c3c(c1)N(c1c(Cl)cccc1Cl)C(=O)NC3)C2 (configuration not stated) | 0.4 |
| CC(C)N1CCC(c2cc(-c3ccc(F)cc3Cl)c3c(c2)N(c2c(Cl)cccc2Cl)C(=O)CC3)CC1 | 0.8 |
| CC(C)N1CCC(Nc2cc3c(ccc(=O)n3-c3c(Cl)cccc3Cl)c(-c3ccccc3Cl)n2)CC1 | 1.1 |
| CN1C2CCC1CC(Nc1cc3c(ccc(=O)n3-c3c(Cl)cccc3Cl)c(-c3ccccc3Cl)n1)C2 (configuration not stated) | 0.4 |
| CC1(C)CC(Nc2cc3c(ccc(=O)n3-c3c(Cl)cccc3Cl)c(-c3ccccc3Cl)n2)CC(C)(C)N1 | 0.8 |
| CC(C)N1CCC(c2cc(-c3ccccc3Cl)c3ccc(=O)n(-c4c(Cl)cccc4Cl)c3c2)CC1 | 0.2 |
| CC(C)N1CCC(c2cc3c(ccc(=O)n3-c3c(Cl)cccc3Cl)c(-c3ccccc3Cl)n2)CC1 | 1.3 |
| CC1(C)CC(Nc2cc(-c3ccccc3Cl)c3c(c2)N(c2c(Cl)cccc2Cl)C(=O)NC3)CC(C)(C)N1 | 3.7 |
| O=c1ccc2c(-c3ccccc3Cl)nc(NC3CCNCC3)cc2n1-c1c(Cl)cccc1Cl | 0.2 |
| CN1C(C)(C)CC(Nc2cc3c(ccc(=O)n3-c3c(Cl)cccc3Cl)c(-c3ccccc3Cl)n2)CC1(C)C | 1.1 |
